Experimental data from patent publication US20220313698A1, “MODULATORS OF CYSTIC FIBROSIS TRANSMEMBRANE CONDUCTANCE REGULATOR” (Vertex Pharmaceuticals Incorporated, priority 2019, published 2022).

What was measured:
[1] = target: T1, CFTR-mediated chloride transport (Homo sapiens, UniProt P13569); test: Corrector Assay B - membrane potential dye assay (enteroid cells); settings: for Corrector Assay B % activity: % of chloride transport of triple combination control (3 μM Compound A + 3 μM tezacaftor + 300 nM ivacaftor); for EC50: read-out: Corrector Assay B EC50, human intestinal enteroid cells, 18-24 h incubation, acute 10 μM forskolin + 300 nM ivacaftor;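 as to all read-outs here: methyl oxonol membrane potential fluorescence followed over 15 min after switching to chloride-free buffer with forskolin, 100 µM IBMX and ivacaftor, in presence of CaCC blockers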
[2] = target: T1, CFTR-mediated chloride transport; test: Corrector Assay A - membrane potential dye assay (enteroid cells); settings: for Corrector Assay A % activity: % of chloride transport of triple combination control (1 μM (14S)-dispiro macrocycle + 3 μM tezacaftor + 300 nM ivacaftor); for EC50: read-out: Corrector Assay A EC50, human intestinal enteroid cells, 18-24 h incubation, acute 10 μM forskolin + 300 nM ivacaftor

Structure (SMILES) | Corrector Assay B % activity [1] | Corrector Assay A % activity [2] | EC50 [2] [nM] | EC50 [1] [nM]
CC1(C)C[C@@H]2CCC(c3ccc(C(=O)O)cc3)Nc3cccc(n3)S(=O)(=O)NC(=O)c3ccc(-n4ccc(OCCC5(C(F)(F)F)CC5)n4)nc3N1C2 (single isomer, unassigned) [Compound 371] | +++ (+++ is >60%) | – | – | < 1000
Cn1cnnc1CN1CCC[C@@H]2CN(c3nc(-n4ccc(OCCC5(C(F)(F)F)CC5)n4)ccc3C(=O)NS(=O)(=O)c3cccc1n3)C(C)(C)C2 [Compound 373] | ++ (++ is 30-60%) | – | – | < 1000
CC(C)(C)c1ccc2c(n1)N1C[C@@H](CC[C@@H](c3cc(C4CCOCC4)ccn3)Nc3cccc(n3)S(=O)(=O)NC2=O)CC1(C)C (single isomer, unassigned) [Compound 122] | – | ++ (++ is 30-60%) | < 1000 | –
CC(C)COc1cccc(-c2ccc3c(n2)N2C[C@@H](CC[C@H](c4ccccn4)Nc4cccc(n4)S(=O)(=O)NC3=O)CC2(C)C)n1 [Compound 315] | – | +++ (+++ is >60%) | < 1000 | –
CC(C)(C)c1ccc2c(n1)N1C[C@@H](CCC(c3cc(C(N)=O)ccn3)Nc3cccc(n3)S(=O)(=O)NC2=O)CC1(C)C (single isomer, unassigned) [Compound 82] | – | ++ (++ is 30-60%) | < 1000 | –
COC[C@@H]1CC[C@@H]2CN(c3nc(C(C)(C)C)ccc3C(=O)NS(=O)(=O)c3cccc(n3)N1)C(C)(C)C2 (single isomer, unassigned) [Compound 277] | – | +++ (+++ is >60%) | < 1000 | –
CC(C)(C)c1ccc2c(n1)N1C[C@@H](CC[C@H](c3cccc(C4CCNCC4)n3)Nc3cccc(n3)S(=O)(=O)NC2=O)CC1(C)C [Compound 132, (14S,17R)-8-tert-Butyl-12,12-dimethyl-17-[6-(piperidin-4-yl)pyridin-2-yl]-2λ^6-thia-3,9,11,18,23-pentaazatetracyclo[17.3.1.111,14.05,10]tetracosa-1(23),5(10),6,8,19,21-hexaene-2,2,4-trione] | – | ++ (++ is 30-60%) | < 1000 | –
CN(C)CC(=O)N1CCC([C@@H]2CC[C@@H]3CN(c4nc(C(C)(C)C)ccc4C(=O)NS(=O)(=O)c4cccc(n4)N2)C(C)(C)C3)CC1 (single isomer, unassigned) [Compound 237] | – | ++ (++ is 30-60%) | 1000 to 3000 | –
CC(C)(C)c1ccc2c(n1)N1C[C@@H](CC[C@@H](c3ccncn3)Nc3cccc(n3)S(=O)(=O)NC2=O)CC1(C)C (single isomer, unassigned) [Compound 216] | – | + (+ is <30%) | – | –
Cc1cccc2cc3c(nc12)N1C[C@@H](CCC(c2cc(C(C)(C)C)ccn2)Nc2cccc(n2)S(=O)(=O)NC3=O)CC1(C)C (single isomer, unassigned) [Compound 3] | – | +++ (+++ is >60%) | < 1000 | –
COc1cccc(-c2ccc3c(n2)N2C[C@@H](CC[C@@H](c4ccccn4)Nc4cccc(n4)S(=O)(=O)NC3=O)CC2(C)C)c1 [Compound 340] | – | ++ (++ is 30-60%) | 1000 to 3000 | –
CC(C)(C)c1ccc2c(n1)N1C[C@@H](CC[C@H](c3ccc(C(F)(F)F)cn3)Nc3cccc(n3)S(=O)(=O)NC2=O)CC1(C)C (single isomer, unassigned) [Compound 80] | – | ++ (++ is 30-60%) | < 1000 | –
CC(C)(C)c1ccc2c(n1)N1C[C@@H](CC[C@H](c3cccc(CCN)n3)Nc3cccc(n3)S(=O)(=O)NC2=O)CC1(C)C [Compound 104] | – | ++ (++ is 30-60%) | < 1000 | –
CC(C)c1ccc(-c2ccc3c(n2)N2C[C@@H](CC[C@@H](c4ccccn4)Nc4cccc(n4)S(=O)(=O)NC3=O)CC2(C)C)cc1 [Compound 348] | – | ++ (++ is 30-60%) | < 1000 | –
Cn1nccc1-c1ccc(C2CC[C@@H]3CN(c4nc(C(C)(C)C)ccc4C(=O)NS(=O)(=O)c4cccc(n4)N2)C(C)(C)C3)nc1 (some centres unmarked) [Compound 58] | – | +++ (+++ is >60%) | < 1000 | –
CC(C)=Cc1ccc(C2CC[C@@H]3CN(c4nc(C(C)(C)C)ccc4C(=O)NS(=O)(=O)c4cccc(n4)N2)C(C)(C)C3)nc1 (some centres unmarked) [Compound 182] | – | +++ (+++ is >60%) | < 1000 | –
CC(C)(C)c1ccc2c(n1)N1C[C@@H](CCC(c3ccc(N4CCCCC4)cn3)Nc3cccc(n3)S(=O)(=O)NC2=O)CC1(C)C (some centres unmarked) [Compound 184] | – | +++ (+++ is >60%) | < 1000 | –
CC(C)(C)c1ccc2c(n1)N1C[C@@H](CCC(CC(O)CO)Nc3cccc(n3)S(=O)(=O)NC2=O)CC1(C)C (single isomer, unassigned) [Compound 30] | – | ++ (++ is 30-60%) | < 1000 | –

Second part, led by results:

Corrector Assay B % activity [1] | Corrector Assay A % activity [2] | EC50 [2] [nM] | Structure (SMILES) | EC50 [1] [nM]
+ (+ is <30%) | – | – | CCCC1(C)CC2CCCNc3cccc(n3)S(=O)(=O)NC(=O)c3ccc(-n4ccc(OCCC5(C(F)(F)F)CC5)n4)nc3N1C2 (single isomer, unassigned) [Compound 365, 12-methyl-12-propyl-8-(3-{2-[1-(trifluoromethyl)cyclopropyl]ethoxy}-1H-pyrazol-1-yl)-2λ^6-thia-3,9,11,18,23-pentaazatetracyclo[17.3.1.111,14.05,10]tetracosa-1(22),5,7,9,19(23),20-hexaene-2,2,4-trione] | –
– | + (+ is <30%) | < 1000 | CC(C)(C)c1ccc2c(n1)N1C[C@@H](CCC(C3CCN(C(=O)OCc4ccccc4)CC3)Nc3cccc(n3)S(=O)(=O)NC2=O)CC1(C)C (single isomer, unassigned) [Compound 254] | –
– | ++ (++ is 30-60%) | > 3000 | COC(=O)CCc1ccc(C2CC[C@@H]3CN(c4nc(C(C)(C)C)ccc4C(=O)NS(=O)(=O)c4cccc(n4)N2)C(C)(C)C3)nc1 (stereo partly drawn) [Compound 91, methyl 3-{6-[(14S)-8-tert-butyl-12,12-dimethyl-2,2,4-trioxo-2λ^6-thia-3,9,11,18,23-pentaazatetracyclo[17.3.1.111,14.05,10]tetracosa-1(23),5(10),6,8,19,21-hexaen-17-yl]pyridin-3-yl}propanoate] | –
– | ++ (++ is 30-60%) | < 1000 | CC(C)(C)c1ccc2c(n1)N1C[C@@H](CC[C@H](c3cccc(CCC#N)n3)Nc3cccc(n3)S(=O)(=O)NC2=O)CC1(C)C [Compound 140] | –
– | +++ (+++ is >60%) | < 1000 | CC(C)(C)c1ccc2c(n1)N1C[C@@H](CC[C@H](c3cccc(N4CCCCC4)n3)Nc3cccc(n3)S(=O)(=O)NC2=O)CC1(C)C [Compound 174] | –
– | +++ (+++ is >60%) | < 1000 | CC(C)(C)c1ccnc([C@H]2CC[C@@H]3CN(c4nc(-c5cccc(F)n5)ccc4C(=O)NS(=O)(=O)c4cccc(n4)N2)C(C)(C)C3)c1 [Compound 307, (14S,17R)-17-(4-tert-butylpyridin-2-yl)-8-(6-fluoropyridin-2-yl)-12,12-dimethyl-2λ^6-thia-3,9,11,18,23-pentaazatetracyclo[17.3.1.111,14.05,10]tetracosa-1(22),5,7,9,19(23),20-hexaene-2,2,4-trione] | –
– | ++ (++ is 30-60%) | < 1000 | CC(C)(C)c1ccc2c(n1)N1C[C@@H](CCC(C3CCN(c4ncccn4)CC3)Nc3cccc(n3)S(=O)(=O)NC2=O)CC1(C)C (stereo partly drawn) [Compound 218, (14S)-8-tert-butyl-12,12-dimethyl-17-[1-(pyrimidin-2-yl)piperidin-4-yl]-2λ^6-thia-3,9,11,18,23-pentaazatetracyclo[17.3.1.111,14.05,10]tetracosa-1(23),5(10),6,8,19,21-hexaene-2,2,4-trione] | –
– | +++ (+++ is >60%) | 1000 to 3000 | CN1CCC(C2CC[C@@H]3CN(c4nc(C(C)(C)C)ccc4C(=O)NS(=O)(=O)c4cccc(n4)N2)C(C)(C)C3)CC1 (single isomer, unassigned) [Compound 240] | –
– | ++ (++ is 30-60%) | < 1000 | CC(=O)N1CCC([C@@H]2CC[C@@H]3CN(c4nc(C(C)(C)C)ccc4C(=O)NS(=O)(=O)c4cccc(n4)N2)C(C)(C)C3)CC1 (single isomer, unassigned) [Compound 229] | –
– | + (+ is <30%) | > 3000 | COCCN1CCC2(CC1)CC(NC(=O)[C@@H]1CC[C@@H]3CN(c4nc(C(C)(C)C)ccc4C(=O)NS(=O)(=O)c4cccc(n4)N1)C(C)(C)C3)C2 [Compound 221] | –
– | ++ (++ is 30-60%) | < 1000 | COC[C@@H]1CC[C@@H]2CN(c3nc(C(C)(C)C)ccc3C(=O)NS(=O)(=O)c3cccc(n3)N1)C(C)(C)C2 (single isomer, unassigned) [Compound 276] | –
– | +++ (+++ is >60%) | < 1000 | CC1(C)OCCc2cc3c(nc21)N1C[C@@H](CCC(c2ccccn2)Nc2cccc(n2)S(=O)(=O)NC3=O)CC1(C)C (single isomer, unassigned) [Compound 212] | –
– | +++ (+++ is >60%) | < 1000 | Cn1ccc(C2CC[C@@H]3CN(c4nc(C(C)(C)C)ccc4C(=O)NS(=O)(=O)c4cccc(n4)N2)C(C)(C)C3)n1 (single isomer, unassigned) [Compound 279] | –
– | +++ (+++ is >60%) | 1000 to 3000 | CC(C)(C)c1ccc2c(n1)N1C[C@@H](CC[C@@H](c3ncccn3)Nc3cccc(n3)S(=O)(=O)NC2=O)CC1(C)C (single isomer, unassigned) [Compound 206] | –
